# Experimental data published in paper PMC11474028, “Lipopeptide antibiotics disrupt interactions of undecaprenyl phosphate with UptA” (Proceedings of the National Academy of Sciences of the …, 2024).
# “Also recorded” adds a separate entry of the source.
# Assays:
# Design in all cases: species or system Bacillus subtilis
# UptA R112A/R118A = assay: Native MS of C55-P binding to UptA double mutant R112A/R118A; settings: 5 µM protein, 10 µM C55-P, pH 8.02, 0.05% LDAO, 200 mM ammonium acetate, 100 V; mean of three biological replicates
# UptA E32A = assay: Native MS of C55-P binding to UptA mutant E32A; settings: 2.5 µM E32A UptA and 10 µM C55-P, pH 8.0
# Text: Conserved arginine residues in the putative membrane reentrant loops of E. coli DedA proteins YqjA (R130) and YghB (R136) are important for the cellular role of these proteins ([36]). […] How these residues impact substrate interactions, however, is not known. Based on the model structure of UptA predicted by AlphaFold, the R112 residue should engage Q64 while R118 is able to form hydrogen bonds with E32, H119, and W146 to potentially stabilize the membrane reentrant loops (Fig. 3A). To test for the impact of these residues on C55-P binding, we generated the E32A, Q64A, R112A, R118A, H119A, and W146A UptA single mutants. After purification of the proteins, using the same protocol as the wild type (WT) (Materials and Methods and SI Appendix, Fig. […]
# (§1) Expression and purification of UptA
# (§2) Plasmids were used to transform chemically competent E. coli C43(DE3) cells (Lucigen) and selected on LB/Agar containing 100 μg/ml ampicillin at 37 °C. Single colonies were used to inoculate 60 mL LB containing 100 μg/ml ampicillin and were grown at 37 °C overnight for 16 h. […]
# The digestion mixture was subsequently incubated with 2-mL bed volume of nickel nitriloacetic acid (NTA) agarose resin to remove His-tagged GFP and TEV protease. […] Concentration was measured using a Biomate UV spectrophotometer at 280 nm using extinction coefficients calculated from their predicted amino […]
# UptA H119A = assay: Native MS of C55-P binding to UptA mutant H119A; settings: 5 µM protein, 10 µM C55-P, pH 8.02, 0.05% LDAO, 200 mM ammonium acetate, collisional activation 100 V; three biological replicates
# Text: Conserved arginine residues in the putative membrane reentrant loops of E. coli DedA proteins YqjA (R130) and YghB (R136) are important for the cellular role of these proteins ([36]). […] How these residues impact substrate interactions, however, is not known. Based on the model structure of UptA predicted by AlphaFold, the R112 residue should engage Q64 while R118 is able to form hydrogen bonds with E32, H119, and W146 to potentially stabilize the membrane reentrant loops (Fig. 3A). To test for the impact of these residues on C55-P binding, we generated the E32A, Q64A, R112A, R118A, H119A, and W146A UptA single mutants. After purification of the proteins, using the same protocol as the wild type (WT) (Materials and Methods and SI Appendix, Fig. S5), we equilibrated aliquots of each protein variant (5 µM) with C55-P (10 µM) and recorded spectra using the same instrument settings. […] We additionally generated a double mutant R112E/R118E in which the polarity of both native arginine residues in the wild type are reversed.
# as §1, §2
smiles,measurement,setting,value
"CC(C)=CCC/C(C)=C/CC/C(C)=C/CC/C(C)=C\CC/C(C)=C\CC/C(C)=C\CC/C(C)=C\CC/C(C)=C\CC/C(C)=C\CC/C(C)=C\CC/C(C)=C\COP(=O)(O)O [C55-P, undecaprenyl phosphate]","reduction in C55-P binding, R112A/R118A",UptA R112A/R118A,43%
same,C55-P binding to E32A UptA dimers versus monomers (in words),UptA E32A,more significantly than the monomeric form; also recorded: relative intensity of ligand-bound dimers is significantly higher than the ligand-bound monomers
same,impact of C55-P binding on monomer–dimer ratio of E32A UptA (in words),UptA E32A,modest increase in the dimer fraction; also recorded: only a modest impact on the monomer–dimer ratios
same,"reduction in C55-P binding intensity compared to wild type, H119A (in words)",UptA H119A,modest reduction
